Where “and” joins values, the source holds several entries; their conditions need not be identical. Equal entries are not always repeated. Entries after “also recorded” stand apart in the source; their conditions may differ. Where two headings read alike, the source gives them in different places.

Assay [1] deals with TTX-sensitive Nav channels in Sprague Dawley rat DRG neuron.
Assay [2] has as its target T1, hNav1.7 (Homo sapiens, UniProt Q15858). The experiment in a line: cell-based. It counts as cell-based. The note with it: for block of hNav1.7 current, in words: 100 pM; for 1.x/1.7: hNav1.7 / hNav1.7.
The target of assay [3] is T1, hNav1.7. The experiment in a line: cell-based. It counts as cell-based.
In assay [4] the test system is TTX-sensitive Nav channels in mouse DRG neuron. As to conditions: for 1.x/1.7: partially inactivated, mTTX-S / hNav1.7.
Assay [5] addresses hNav1.4 (Homo sapiens, UniProt P35499). The experiment in a line: cell-based. Format: cell-based. As to conditions: Table 12.
Assay [6] has as its target hNav1.6 (Homo sapiens, UniProt Q9UQD0). The experiment in a line: cell-based. The note with it: Table 15; for Nav1.6/Nav1.7: ratio of PX tonic IC50 values; for IC50: read-out: PX hNav1.6 Tonic IC50. It counts as cell-based.
In assay [7] the target is rNav1.7 (Rattus norvegicus, UniProt O08562). The experiment in a line: cell-based.
Assay [8] has as its target mouse Nav1.4 (Mus musculus, UniProt Q9ER60). The experiment in a line: cell-based.
Assay [9] deals with mNav1.7 (Mus musculus, UniProt Q62205). The experiment in a line: cell-based.
Setting [10] is: Table 15, read-out: PX hNav1.7 Tonic IC50.

T1 sequence (Q15858 whole entry): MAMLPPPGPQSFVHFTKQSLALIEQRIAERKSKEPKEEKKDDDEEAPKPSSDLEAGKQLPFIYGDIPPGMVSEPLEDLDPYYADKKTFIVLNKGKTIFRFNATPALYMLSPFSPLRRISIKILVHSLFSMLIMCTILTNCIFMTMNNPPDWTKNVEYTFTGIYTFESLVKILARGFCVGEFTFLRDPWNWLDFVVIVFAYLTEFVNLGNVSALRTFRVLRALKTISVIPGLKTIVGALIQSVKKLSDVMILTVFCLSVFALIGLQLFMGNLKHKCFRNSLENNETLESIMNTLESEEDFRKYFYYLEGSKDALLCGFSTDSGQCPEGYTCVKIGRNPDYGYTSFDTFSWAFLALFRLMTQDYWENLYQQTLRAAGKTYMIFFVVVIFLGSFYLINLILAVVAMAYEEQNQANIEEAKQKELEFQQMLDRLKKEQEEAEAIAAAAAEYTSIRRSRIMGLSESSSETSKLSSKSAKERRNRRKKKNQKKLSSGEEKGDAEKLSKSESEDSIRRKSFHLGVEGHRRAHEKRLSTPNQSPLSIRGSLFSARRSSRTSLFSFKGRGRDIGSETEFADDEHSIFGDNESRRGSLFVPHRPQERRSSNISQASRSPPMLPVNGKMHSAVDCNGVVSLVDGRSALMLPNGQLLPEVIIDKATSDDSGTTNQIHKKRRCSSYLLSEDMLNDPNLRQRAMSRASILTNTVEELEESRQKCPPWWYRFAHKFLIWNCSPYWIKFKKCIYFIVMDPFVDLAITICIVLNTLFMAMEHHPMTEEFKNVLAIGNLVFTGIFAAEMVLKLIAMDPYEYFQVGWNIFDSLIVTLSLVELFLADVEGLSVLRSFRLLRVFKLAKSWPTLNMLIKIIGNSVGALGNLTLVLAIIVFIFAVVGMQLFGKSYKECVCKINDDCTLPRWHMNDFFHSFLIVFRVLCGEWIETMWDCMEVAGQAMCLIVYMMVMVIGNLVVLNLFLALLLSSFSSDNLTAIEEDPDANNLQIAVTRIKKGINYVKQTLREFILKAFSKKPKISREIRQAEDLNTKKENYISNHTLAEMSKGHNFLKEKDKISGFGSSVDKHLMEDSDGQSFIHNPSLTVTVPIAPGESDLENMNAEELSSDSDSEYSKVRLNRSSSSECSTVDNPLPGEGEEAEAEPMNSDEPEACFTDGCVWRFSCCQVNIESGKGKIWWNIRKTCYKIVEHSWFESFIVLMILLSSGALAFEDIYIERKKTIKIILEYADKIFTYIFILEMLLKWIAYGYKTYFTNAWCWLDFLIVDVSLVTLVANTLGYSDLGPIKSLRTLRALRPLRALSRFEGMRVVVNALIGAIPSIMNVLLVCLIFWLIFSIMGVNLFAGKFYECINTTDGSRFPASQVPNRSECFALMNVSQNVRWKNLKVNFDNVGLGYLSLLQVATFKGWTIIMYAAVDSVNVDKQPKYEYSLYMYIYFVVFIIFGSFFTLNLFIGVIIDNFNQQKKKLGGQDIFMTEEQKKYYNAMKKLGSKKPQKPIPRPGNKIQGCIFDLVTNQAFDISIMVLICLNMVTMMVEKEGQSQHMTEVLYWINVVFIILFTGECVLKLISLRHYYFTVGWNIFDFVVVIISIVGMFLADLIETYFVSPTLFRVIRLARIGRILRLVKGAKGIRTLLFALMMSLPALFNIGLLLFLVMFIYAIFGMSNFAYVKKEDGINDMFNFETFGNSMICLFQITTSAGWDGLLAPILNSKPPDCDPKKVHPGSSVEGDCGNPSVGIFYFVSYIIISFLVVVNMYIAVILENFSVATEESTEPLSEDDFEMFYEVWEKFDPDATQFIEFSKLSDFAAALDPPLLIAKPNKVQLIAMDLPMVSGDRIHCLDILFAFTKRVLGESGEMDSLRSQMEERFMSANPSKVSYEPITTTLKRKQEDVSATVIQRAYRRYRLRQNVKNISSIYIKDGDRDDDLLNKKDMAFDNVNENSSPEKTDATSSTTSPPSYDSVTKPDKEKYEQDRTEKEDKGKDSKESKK
hNav1.6, sequence (Q9UQD0 whole entry): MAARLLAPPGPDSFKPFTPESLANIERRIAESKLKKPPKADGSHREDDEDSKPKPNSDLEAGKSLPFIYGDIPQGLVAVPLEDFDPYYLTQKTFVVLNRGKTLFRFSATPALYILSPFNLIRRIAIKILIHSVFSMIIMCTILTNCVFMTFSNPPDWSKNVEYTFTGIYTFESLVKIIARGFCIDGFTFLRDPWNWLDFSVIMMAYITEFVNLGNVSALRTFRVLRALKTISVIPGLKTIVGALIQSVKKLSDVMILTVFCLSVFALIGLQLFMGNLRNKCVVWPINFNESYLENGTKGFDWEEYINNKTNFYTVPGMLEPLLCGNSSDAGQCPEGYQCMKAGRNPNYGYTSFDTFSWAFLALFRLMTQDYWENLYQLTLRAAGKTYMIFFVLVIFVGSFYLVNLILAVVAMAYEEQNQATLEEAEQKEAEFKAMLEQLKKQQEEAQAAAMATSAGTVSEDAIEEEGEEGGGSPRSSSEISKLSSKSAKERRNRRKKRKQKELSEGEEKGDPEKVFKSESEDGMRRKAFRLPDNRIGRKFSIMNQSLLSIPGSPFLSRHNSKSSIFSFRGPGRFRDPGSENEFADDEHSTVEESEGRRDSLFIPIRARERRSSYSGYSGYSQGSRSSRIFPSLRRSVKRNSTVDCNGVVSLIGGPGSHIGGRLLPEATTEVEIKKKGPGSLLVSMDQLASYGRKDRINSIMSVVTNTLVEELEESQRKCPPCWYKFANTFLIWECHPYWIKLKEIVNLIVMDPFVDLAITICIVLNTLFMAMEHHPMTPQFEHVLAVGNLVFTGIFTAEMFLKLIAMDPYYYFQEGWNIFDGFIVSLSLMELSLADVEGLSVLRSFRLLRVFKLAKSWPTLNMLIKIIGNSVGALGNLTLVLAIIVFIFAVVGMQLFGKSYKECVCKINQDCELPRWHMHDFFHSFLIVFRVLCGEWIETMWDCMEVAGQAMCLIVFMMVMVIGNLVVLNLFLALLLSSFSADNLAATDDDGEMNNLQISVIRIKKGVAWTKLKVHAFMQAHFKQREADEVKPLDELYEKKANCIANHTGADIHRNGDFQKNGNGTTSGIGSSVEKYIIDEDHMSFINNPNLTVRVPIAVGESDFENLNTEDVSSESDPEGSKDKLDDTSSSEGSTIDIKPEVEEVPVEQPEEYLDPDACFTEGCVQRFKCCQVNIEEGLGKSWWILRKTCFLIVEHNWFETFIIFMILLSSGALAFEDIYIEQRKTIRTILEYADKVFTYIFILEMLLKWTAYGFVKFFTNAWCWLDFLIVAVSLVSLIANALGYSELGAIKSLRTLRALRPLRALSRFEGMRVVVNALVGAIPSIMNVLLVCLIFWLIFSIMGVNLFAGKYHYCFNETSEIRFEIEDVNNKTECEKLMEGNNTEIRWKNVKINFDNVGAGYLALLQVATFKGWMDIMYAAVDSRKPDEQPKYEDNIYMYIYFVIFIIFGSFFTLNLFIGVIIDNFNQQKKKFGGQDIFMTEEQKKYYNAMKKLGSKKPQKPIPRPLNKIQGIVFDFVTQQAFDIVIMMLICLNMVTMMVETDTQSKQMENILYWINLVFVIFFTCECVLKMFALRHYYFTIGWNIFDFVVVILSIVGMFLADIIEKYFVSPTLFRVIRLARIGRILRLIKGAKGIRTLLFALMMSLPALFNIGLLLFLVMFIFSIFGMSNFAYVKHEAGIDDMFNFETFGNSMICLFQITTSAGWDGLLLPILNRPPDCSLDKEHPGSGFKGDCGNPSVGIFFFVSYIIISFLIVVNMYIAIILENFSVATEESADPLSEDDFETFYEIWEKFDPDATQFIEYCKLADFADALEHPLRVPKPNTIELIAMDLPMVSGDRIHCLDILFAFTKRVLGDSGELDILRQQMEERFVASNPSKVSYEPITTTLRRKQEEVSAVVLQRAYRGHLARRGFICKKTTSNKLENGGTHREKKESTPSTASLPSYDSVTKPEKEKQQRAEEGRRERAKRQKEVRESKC

`C#CC[C@@H]1NC(=O)[C@@H]2CSSC[C@H](NC(=O)[C@H](Cc3ccc(O)cc3)NC(=O)[C@@H](N)CC#N)C(=O)N[C@@H](CCC(N)=O)C(=O)N[C@@H](CCCCN)C(=O)N[C@@H](Cc3c[nH]c4ccccc34)C(=O)N[C@@H](CCCC)C(=O)N[C@@H](Cc3c[nH]c4ccccc34)C(=O)N[C@@H]([C@@H](C)O)C(=O)N[C@H]3CSSC[C@H](NC(=O)[C@H](CCCNC(=N)N)NC(=O)[C@H](CC(C)C)NC(=O)CNC1=O)C(=O)N[C@@H](CCCCN)C(=O)N[C@@H](CC(C)C)C(=O)N[C@@H](Cc1c[nH]c4ccccc14)C(=O)N[C@H](C(=O)N[C@@H](CCCNC(=N)N)C(=O)N[C@@H](CCCCN)C(=O)N[C@@H](CCC(=O)O)C(=O)N[C@H](C(N)=O)[C@@H](C)CC)CSSC[C@H](NC(=O)[C@H](C)NC(=O)[C@H](CCCNC(=N)N)NC(=O)[C@H](CCCCN)NC(=O)[C@H](CO)NC(=O)[C@H](CC(=O)O)NC3=O)C(=O)N2` [CyA-[Nle6,Glu28]JzTx-V(1-29)]: the IC50 in assay [1] was 9.25 nM.
Take `C#CC[C@H](N)C(=O)N[C@@H](Cc1ccc(O)cc1)C(=O)N[C@H]1CSSC[C@@H]2NC(=O)[C@@H]3CSSC[C@@H](C(=O)N[C@@H](CCCNC(=N)N)C(=O)N[C@@H](CCCCN)C(=O)N[C@@H](CCC(=O)O)C(=O)N[C@H](C(N)=O)[C@@H](C)CC)NC(=O)[C@H](Cc4c[nH]c5ccc(Br)cc45)NC(=O)[C@H](CC(C)C)NC(=O)[C@H](CCCCN)NC(=O)[C@H](CSSC[C@H](NC(=O)[C@H]([C@@H](C)O)NC(=O)[C@H](Cc4c[nH]c5ccccc45)NC(=O)[C@H](CCCC)NC(=O)[C@H](Cc4c[nH]c5ccccc45)NC(=O)[C@H](CCCCN)NC(=O)[C@H](CCC(N)=O)NC1=O)C(=O)N[C@@H](CC(=O)O)C(=O)N[C@@H](CO)C(=O)N[C@@H](CCCCN)C(=O)N[C@@H](CCCNC(=N)N)C(=O)N[C@@H](C)C(=O)N3)NC(=O)[C@H](CCCNC(=N)N)NC(=O)[C@H](CC(C)C)NC(=O)CNC(=O)[C@H](CCC(=O)O)NC2=O` [compound 858]: the “block of hNav1.7 current” value in assay [2] (100 nM) was “approximately 90%”. The IC50 in assay [2] (WCPC, partially inactivated, hNav1.7, n=2, read-out: Mean IC50) was determined as 0.13 nM; in assay [3] (Table 12, PatchXpress, tonic block, read-out: PX hNav1.7 Tonic IC50), 0.039 nM; in [3] (setting [10]), 0.059 nM; in assay [4], 3.8 nM; in [5] (PatchXpress, tonic block, read-out: PX hNav1.4 Tonic IC50) it was 40.4 nM; in assay [6], 49.2 nM. The “potency against hNav1.7, in words” value in [2] (manual WCPC) is “sub-nanomolar potent inhibitor”. For the same compound, in [4] (30 nM, C57 Black 6 mouse DRG neuron), the “block of TTX-sensitive Nav current, in words” value is on record as “blocks most of TTX-sensitive Nav current”. The “potency on TTX-S current in mDRG neurons, in words” value in assay [4] (manual patch clamp) is on record as “single digit-nanomolar inhibitor”. The 1.x/1.7 in [4] came to 29. Besides, in assay [5] (ratio of PX tonic IC50 values), the Nav1.4/Nav1.7 is listed as 1036. The Nav1.6/Nav1.7 in assay [6] came out at 829.
For `C#CC[C@H](N)C(=O)N[C@@H](Cc1ccc(O)cc1)C(=O)N[C@H]1CSSC[C@@H]2NC(=O)[C@@H]3CSSC[C@@H](C(=O)N[C@@H](CCCNC(=N)N)C(=O)N[C@@H](CCCCN)C(=O)N[C@H](C(=O)N[C@H](C(N)=O)[C@@H](C)CC)[C@@H](C)CC)NC(=O)[C@H](Cc4c[nH]c5ccccc45)NC(=O)[C@H](CC(C)C)NC(=O)[C@H](CCCCN)NC(=O)[C@H](CSSC[C@H](NC(=O)[C@H]([C@@H](C)O)NC(=O)[C@H](Cc4c[nH]c5ccccc45)NC(=O)[C@H](CCCC)NC(=O)[C@H](Cc4c[nH]c5ccccc45)NC(=O)[C@H](CCCCN)NC(=O)[C@H](CCC(N)=O)NC1=O)C(=O)N[C@@H](CC(=O)O)C(=O)N[C@@H](CO)C(=O)N[C@@H](CCCCN)C(=O)N[C@@H](CCCNC(=N)N)C(=O)N[C@@H](C)C(=O)N3)NC(=O)[C@H](CCCNC(=N)N)NC(=O)[C@H](CC(C)C)NC(=O)CNC(=O)[C@H](CCC(=O)O)NC2=O` [compound 425], the “block of hNav1.7 current, in words” value is on record as “fully blocked Nav1.7 current; also recorded: complete inhibition” in assay [2] (held at −77 mV, partially inactivated state) and “fully blocked Nav1.7 current; also recorded: complete inhibition” in [2] (held at −140 mV, fully non-inactivated state). The “improvement in hNav1.7 potency over wild type JzTx-V” value in assay [2] (WCPC format) is ~200 fold and 190 fold. Also, the 1.x/1.7 in assay [2] (fully non-inactivated) is 1; in assay [2] (partially inactivated), 1; in assay [4] it was 6335. In addition, the IC50 was determined as 1.2 nM in [3] (setting [10]), 5.35 nM in assay [4] and 67.9 nM in [6]. Also, the “inhibition of TTX-sensitive sodium current, in words” value in assay [4] (1 nM as printed, mouse DRG neurons) was “almost complete inhibition”. Moreover, in assay [4] (100 nM), the “block of TTX-sensitive Nav current, in words” value is reported as “blocked most TTX-sensitive Nav current”. Moreover, the “fold more potent than JzTx-V in inhibition of TTX-sensitive current” value in [4] (mouse DRG neurons) was “about 3 fold”. Moreover, the Nav1.6/Nav1.7 in assay [6] is listed as 57.
As for “[Phe6,Atz(2 kDa EtO-PEG*-[Phe6,Atz13*]GpTx-1(1-34)1)13]GpTx-1(1-34) [Homodimeric Conjugate No. 3]”, the IC50 was 0.58 nM in assay [2] (read-out: Nav1.7 whole cell patch clamp [WCPC] IC50) and 13 nM in assay [3] (read-out: Nav1.7 PX IC50). Also, the Wash out entry in assay [3] is on record as “No”.
`C#CC[C@H](N)C(=O)N[C@@H](Cc1ccc(O)cc1)C(=O)N[C@H]1CSSC[C@@H]2NC(=O)[C@@H]3CSSC[C@@H](C(=O)N[C@@H](CCCNC(=N)N)C(=O)N[C@@H](CCCCN)C(=O)N[C@H](C(=O)N[C@H](C(N)=O)[C@@H](C)CC)[C@@H](C)CC)NC(=O)[C@H](Cc4c[nH]c5ccccc45)NC(=O)[C@H](CC(C)C)NC(=O)[C@H](CCCCN)NC(=O)[C@H](CSSC[C@H](NC(=O)[C@H]([C@@H](C)O)NC(=O)[C@H](Cc4c[nH]c5ccccc45)NC(=O)[C@H](CCCC)NC(=O)[C@H](Cc4c[nH]c5ccccc45)NC(=O)[C@H](CCCCN)NC(=O)[C@H](CCC(N)=O)NC1=O)C(=O)N[C@@H](CC(=O)O)C(=O)N[C@@H](CO)C(=O)N[C@@H](CCCCN)C(=O)N[C@@H](CCCNC(=N)N)C(=O)N[C@@H](C)C(=O)N3)NC(=O)[C@H](CCCNC(=N)N)NC(=O)[C@H](CC(C)C)NC(=O)CNC(=O)[C@H](CCC(=O)O)NC2=O` [SEQ ID NO: 425, Pra-[Nle6]JzTx-V(1-29)]: the IC50 was found to be 0.522 nM in assay [7] (PatchXpress, tonic block, rat Nav1.7, read-out: PX rNav1.7 Tonic IC50); 0.18 nM in assay [8] (PatchXpress, tonic block, mouse Nav1.4, read-out: PX mNav1.4 Tonic IC50); 0.511 nM in [9] (PatchXpress, tonic block, mouse Nav1.7, read-out: PX mNav1.7 Tonic IC50). In addition, the rNav1.7/hNav1.7 in assay [7] (ratio of PX tonic IC50, rat Nav1.7 over human Nav1.7) amounted to 0.44. Also, the mNav1.4/mNav1.7 in assay [8] (ratio of PX tonic IC50, mouse Nav1.4 over mouse Nav1.7) is on record as 0.35. Further, the mNav1.7/hNav1.7 in [9] (ratio of PX tonic IC50, mouse Nav1.7 over human Nav1.7) was found to be 0.43.

By IC50 is commonly meant the concentration needed to halve the response being measured.

The values above are taken from patent US10344060B2 (priority 2013, dated 2019).
